# Structures can show the parent of a compound that is named as a salt.
# Tests used:
# [1] = molecular target: T1, recombinant N-terminal MLH1 (residues 15-340) (Homo sapiens, UniProt P40692); experiment: Fluorescence Polarisation Assay for MLH1; assay type: binding; conditions: fluorescence polarisation probe displacement; 100 nM N-terminal MLH1, 5 nM probe compound
# T1 construct: recombinant N-terminal MLH1 (residues 15-340)
# T1 sequence (P40692 15-340): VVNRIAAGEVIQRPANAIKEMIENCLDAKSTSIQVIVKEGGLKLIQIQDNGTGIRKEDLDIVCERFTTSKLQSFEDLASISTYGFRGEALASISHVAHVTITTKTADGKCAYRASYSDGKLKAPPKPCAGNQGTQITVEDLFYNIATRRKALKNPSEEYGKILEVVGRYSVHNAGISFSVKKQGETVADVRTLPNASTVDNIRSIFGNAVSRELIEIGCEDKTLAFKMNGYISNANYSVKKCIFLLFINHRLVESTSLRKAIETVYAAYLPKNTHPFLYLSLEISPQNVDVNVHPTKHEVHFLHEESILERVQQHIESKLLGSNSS
# In short: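 FP displacement assay: 100 nM MLH1 (residues 15-340) preincubated 30 min at room temperature with compound in 25 mM HEPES pH 7.5, 250 mM NaCl, 10 mM MgCl2, 0.01% Triton X-100, 5 mM DTT, then 5 nM rhodamine-labelled probe added and read immediately. Data normalised to no-inhibitor and no-enzyme controls.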
# [2] = molecular target: T2, recombinant N-terminal PMS2 (residues 1-365) (Homo sapiens, UniProt P54278); experiment: Fluorescence Polarisation Assay for PMS2; assay type: binding; conditions: fluorescence polarisation probe displacement; 10 nM N-terminal PMS2, 5 nM probe compound; read-out: PMS2 IC50
# T2 construct: recombinant N-terminal PMS2 (residues 1-365)
# T2 sequence (P54278 1-365): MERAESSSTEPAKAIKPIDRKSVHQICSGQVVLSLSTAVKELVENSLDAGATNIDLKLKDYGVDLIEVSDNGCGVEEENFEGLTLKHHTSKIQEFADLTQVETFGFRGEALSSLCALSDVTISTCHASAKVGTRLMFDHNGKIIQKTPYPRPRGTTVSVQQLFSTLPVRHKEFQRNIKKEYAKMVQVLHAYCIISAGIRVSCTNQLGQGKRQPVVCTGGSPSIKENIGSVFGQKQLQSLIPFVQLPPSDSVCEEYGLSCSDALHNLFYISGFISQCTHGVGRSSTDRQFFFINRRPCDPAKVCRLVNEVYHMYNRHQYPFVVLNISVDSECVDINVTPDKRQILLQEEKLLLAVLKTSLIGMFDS
# In short: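 Competition fluorescence polarisation with 10 nM N-terminal PMS2 and 5 nM fluorescent probe (final), read after 1 h at room temperature following 30 min compound pre-incubation. Data normalised to no-inhibitor and no-enzyme controls; single-point screening or serial dilutions for potency.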
IC50 [1] [nM],IC50 [2] [nM],SMILES
1000 to 10000,1000 to 10000,"CC(=O)Nc1cccc2c1CN(C(=O)c1c(O)cc(O)cc1OCc1ccccc1)C2 [Example 94, N-(2-(2-(benzyloxy)-4,6-dihydroxybenzoyl)isoindolin-4-yl)acetamide]"
1000 to 10000,1000 to 10000,"CC(=O)NCc1cccc2c1CN(C(=O)c1c(O)cc(O)cc1OCc1ccccc1)C2 [Example 95, N-((2-(2-(Benzyloxy)-4,6-dihydroxybenzoyl)isoindolin-4-yl)methyl)acetamide]"
< 1000,> 10000,"O=C(c1c(O)cc(O)cc1OCc1cccnc1)N1Cc2cccc(NC3CCOC3)c2C1 (stereo not shown) [Example 96, (2,4-dihydroxy-6-(pyridin-3-ylmethoxy)phenyl)(4-((tetrahydrofuran-3-yl)amino)isoindolin-2-yl)methanone]"
< 1000,1000 to 10000,"O=C(c1c(O)cc(O)cc1OCc1ccncc1)N1Cc2cccc(NC3CCOC3)c2C1 (stereo not shown) [Example 97, (2,4-Dihydroxy-6-(pyridin-4-ylmethoxy)phenyl)(4-((tetrahydrofuran-3-yl)amino)isoindolin-2-yl)methanone]"
1000 to 10000,> 10000,"O=C(c1c(O)cc(O)cc1OCC1CCOCC1)N1Cc2cccc(NC3CCOC3)c2C1 (stereo not shown) [Example 98, (2,4-Dihydroxy-6-((tetrahydro-2H-pyran-4-yl)methoxy)phenyl)(4-((tetrahydrofuran-3-yl)amino)isoindolin-2-yl)methanone]"
1000 to 10000,> 10000,"O=C(c1c(O)cc(O)cc1OCc1cccnn1)N1Cc2cccc(NC3CCOC3)c2C1 (stereo not shown) [Example 99, (2,4-Dihydroxy-6-(pyridazin-3-ylmethoxy)phenyl)(4-((tetrahydrofuran-3-yl)amino)isoindolin-2-yl)methanone]"
1000 to 10000,1000 to 10000,"Nc1cccc2c1CN(C(=O)c1c(O)cc(O)cc1OCc1ccccc1)CC2 [Example 100, 8-Amino-3,4-dihydroisoquinolin-2(1H)-yl(2-(benzyloxy)-4,6-dihydroxyphenyl)methanone]"
1000 to 10000,1000 to 10000,"CC(=O)Nc1cccc2c1CN(C(=O)c1c(O)cc(O)cc1OCc1ccccc1)CC2 [Example 101, N-(2-(2-(benzyloxy)-4,6-dihydroxybenzoyl)-1,2,3,4-tetrahydroisoquinolin-8-yl)acetamide]"
> 10000,> 10000,"O=C(Nc1cccc2c1CN(C(=O)c1c(O)cc(O)cc1OCc1ccccc1)CC2)C1CCOC1 (stereo not shown) [Example 102, N-(2-(2-(Benzyloxy)-4,6-dihydroxybenzoyl)-1,2,3,4-tetrahydroisoquinolin-8-yl) tetrahydrofuran-3-carboxamide]"
< 1000,< 1000,"CC(C)(C)OC(=O)NCCCCCN1CCN(Cc2ccc3c(c2)CN(C(=O)c2c(O)cc(O)cc2OCc2ccccc2)C3)CC1 [Example 103, t-Butyl (5-(4-((2-(2-(benzyloxy)-4,6-dihydroxybenzoyl)isoindolin-5-yl)methyl)piperazin-1-yl)pentyl)carbamate]"
< 1000,< 1000,"NCCCCCN1CCN(Cc2ccc3c(c2)CN(C(=O)c2c(O)cc(O)cc2OCc2ccccc2)C3)CC1 [Example 104, (5-((4-(5-Aminopentyl)piperazin-1-yl)methyl)isoindolin-2-yl)(2-(benzyloxy)-4,6 dihydroxyphenyl)methanone hydrochloride]"
< 1000,1000 to 10000,"O=C(c1c(O)cc(O)cc1OCc1ccccc1)N1Cc2cccc(NCC3CCOC3)c2C1 (stereo not shown) [Example 112, (2-(Benzyloxy)-4,6-dihydroxyphenyl)(4-(((tetrahydrofuran-3-yl)methyl)amino)isoindolin-2-yl)methanone]"
< 1000,> 10000,"CN(C)C(=O)N1CCC(Nc2cccc3c2CN(C(=O)c2c(O)cc(O)cc2OCc2ccccc2)CC3)C1 (stereo not shown) [Example 113, 3-((2-(2-(Benzyloxy)-4,6-dihydroxybenzoyl)-1,2,3,4-tetrahydroisoquinolin-8-yl)amino)-N,N-dimethylpyrrolidine-1-carboxamide]"
1000 to 10000,> 10000,"CN1CCC(Nc2cccc3c2CN(C(=O)c2c(O)cc(O)cc2OCc2ccccc2)CC3)CC1=O (stereo not shown) [Example 114, 4-((2-(2-(Benzyloxy)-4,6-dihydroxybenzoyl)-1,2,3,4-tetrahydroisoquinolin-8-yl)amino)-1-methylpiperidin-2-one]"
1000 to 10000,1000 to 10000,"O=C(c1c(O)cc(O)cc1OCc1ccccc1)N1CCc2ncnc(N[C@H]3CCOC3)c2C1 [Example 115, (S)-(2-(Benzyloxy)-4,6-dihydroxyphenyl)(4-((tetrahydrofuran-3-yl)amino)-7,8-dihydropyrido[4,3-d]pyrimidin-6(5H)-yl)methanone]"
1000 to 10000,1000 to 10000,"O=C(c1c(O)cc(O)cc1OCc1ccccc1)N1CCc2ccc(F)c(NC3CCOC3)c2C1 (stereo not shown) [Example 116, (2-(Benzyloxy)-4,6-dihydroxyphenyl)(7-fluoro-8-((tetrahydrofuran-3-yl)amino)-3,4-dihydroisoquinolin-2(1H)-yl)methanone]"
< 1000,1000 to 10000,"Cn1cc(Nc2cccc3c2CN(C(=O)c2c(O)cc(O)cc2OCc2ccccc2)CC3)cn1 [Example 117, (2-(Benzyloxy)-4,6-dihydroxyphenyl)(8-((1-methyl-1H-pyrazol-4-yl)amino)-3,4-dihydroisoquinolin-2(1H)-yl)methanone]"
1000 to 10000,1000 to 10000,"O=C(c1c(O)cc(O)cc1OCc1ccccc1)N1CCc2cccc(Nc3cccnc3)c2C1 [Example 118, (2-(Benzyloxy)-4,6-dihydroxyphenyl)(8-(pyridin-3-ylamino)-3,4-dihydroisoquinolin-2(1H)-yl)methanone]"
1000 to 10000,1000 to 10000,"O=C(c1c(O)cc(O)cc1OCc1ccccc1)N1CCc2cccc(Nc3cnccn3)c2C1 [Example 119, (2-(Benzyloxy)-4,6-dihydroxyphenyl)(8-(pyrazin-2-ylamino)-3,4-dihydroisoquinolin-2(1H)-yl)methanone]"
< 1000,1000 to 10000,"O=C(c1c(O)cc(O)cc1OCc1ccccc1)N1CCc2cccc(Nc3ccnnc3)c2C1 [Example 120, (2-(Benzyloxy)-4,6-dihydroxyphenyl)(8-(pyridazin-4-ylamino)-3,4-dihydroisoquinolin-2(1H)-yl)methanone]"
< 1000,< 1000,"CN1CCN(Cc2cc3c(c(N[C@H]4CCOC4)c2)CN(C(=O)c2c(O)cc(O)cc2OCc2ccccc2)CC3)CC1 [Example 121, (S)-(2-(Benzyloxy)-4,6-dihydroxyphenyl)(6-((4-methylpiperazin-1-yl)methyl)-8-((tetrahydrofuran-3-yl)amino)-3,4-dihydroisoquinolin-2(1H)-yl)methanone]"
< 1000,1000 to 10000,"CN1CCN(Cc2cc3c(c(N[C@@H]4CCOC4)c2)CN(C(=O)c2c(O)cc(O)cc2OCc2ccccc2)CC3)CC1 [Example 122, (R)-(2-(Benzyloxy)-4,6-dihydroxyphenyl)(6-((4-methylpiperazin-1-yl)methyl)-8-((tetrahydrofuran-3-yl)amino)-3,4-dihydroisoquinolin-2(1H)-yl)methanone]"
1000 to 10000,> 10000,"Cc1ncncc1Nc1cccc2c1CN(C(=O)c1c(O)cc(O)cc1OCc1ccccc1)CC2 [Example 123, (2-(Benzyloxy)-4,6-dihydroxyphenyl)(8-((4-methylpyrimidin-5-yl)amino)-3,4-dihydroisoquinolin-2(1H)-yl)methanone]"
< 1000,< 1000,"Cc1cccc(COc2cc(O)cc(O)c2C(=O)N2CCc3cccc(N[C@H]4CCOC4)c3C2)c1 [Example 124, (S)-(2,4-Dihydroxy-6-((3-methylbenzyl)oxy)phenyl)(8-((tetrahydrofuran-3-yl)amino)-3,4-dihydroisoquinolin-2(1H)-yl)methanone]"
< 1000,< 1000,"CN(C)Cc1cc2c(c(N[C@H]3CCOC3)c1)CN(C(=O)c1c(O)cc(O)cc1OCc1ccccc1)CC2 [Example 125, (S)-(2-(Benzyloxy)-4,6-dihydroxyphenyl)(6-((dimethylamino)methyl)-8-((tetrahydrofuran-3-yl)amino)-3,4-dihydroisoquinolin-2(1H)-yl)methanone]"
< 1000,1000 to 10000,"CN(C)Cc1cc2c(c(N[C@@H]3CCOC3)c1)CN(C(=O)c1c(O)cc(O)cc1OCc1ccccc1)CC2 [Example 126, (R)-(2-(Benzyloxy)-4,6-dihydroxyphenyl)(6-((dimethylamino)methyl)-8-((tetrahydrofuran-3-yl)amino)-3,4-dihydroisoquinolin-2(1H)-yl)methanone]"

# — patent publication US20240293392A1, “INHIBITOR COMPOUNDS” (NeoPhore Limited, priority 2021, published 2024)
